Measurements reported in patent US11738099B2, “Molecular probes and methods of use” (CASE WESTERN RESERVE UNIVERSITY, priority 2014, dated 2023).
Where no end group is shown, it is not given here.

Experiments:
[1] = test system: LNCaP prostate tumor xenografts; experiment: Ex vivo fluorescence imaging and sections, LNCaP mouse model; type: in vivo; conditions: confocal microscopy
Protocol: (§1) After fluorescence imaging of the organs, they were embedded in O.C.T and sectioned at 5 μm thickness, and mounted on to glass slides. The slides were fixed and permeabilized with cold acetone, followed by blocking with 1% BSA for 1 hour. DAPI or EDB-FN specific antibody, BC-1 (Abcam, Cambridge, Mass.), were applied subsequently for staining. Unbound antibodies were washed with TBS-T (0.1%). Alexa Fluor 594-conjugated goat anti-mouse IgG H&L (Abcam) was used as the secondary antibody. Prolong Gold antifade solution (Invitrogen, Grand Island, N.Y.), was used to cover the slides. The stained tissue sections were imaged using confocal laser scanning microscopy.
(§2) The targeted binding of ZD2-Cy5.5 to the prostate tumor was assessed ex vivo using Maestro FLEX In vivo Imaging System (Caliper Life Sciences, Hopkinton, Mass.) using a red filter set (spectral range of 630-910 nm, 1000 ms exposure time). ZD2-Cy5.5 (10 nmol) was administered to study the in vivo distribution of ZD2-based probes. At 3 h post-injection, the mice were sacrificed to image the tumors and the organs.

MDA-MB-231 spheres = experiment: ZD2-Cy5.5 binding, 3D culture of MDA-MB-231 cells; type: cell-based; conditions: 250 nM, 1 h, confocal microscopy
Protocol: (§3) MDA-MB-231, Hs578T, BT549, MCF-7, ZR-75-1 and T47D were acquired from American Type Culture Collection (ATCC, Rockville, Md., USA). MDA-MB-231 cells were maintained in Dulbecco Modified Eagle Medium (DMEM) supplemented with 10% fetal bovine serum (FBS) and 5% penicillin/streptomycin (pen/strep). Hs578T, BT549 and MCF-7 cells were maintained in Eagle Minimum Essential Medium (EMEM) supplemented with 0.01 mg/ml human recombinant insulin, 10% FBS and 5% pen/strep. ZR-75-1 and T47D were maintained in RPMI 1640 medium supplemented with 10% FBS and 5% pen/strep. Three-dimensional culture of cells was achieved by an “on-top” matrigel method reported previously. Briefly, on a glass-bottom plate a thick layer of matrigel was coated, followed by plating MDA-MB-231 or MCF-7 cells on top of the matrigel. Once 3D sphere or clusters formed, ZD2-Cy5.5 was added to the medium to the final concentration of 250 nM. Binding of ZD2-Cy5.5 to the 3D spheres was evaluated using a confocal laser scanning microscope (Olympus Corporation, Tokyo, Japan) after culturing for 1 h.

LNCaP cell clusters = experiment: ZD2-Cy5.5 binding, 3D matrigel culture of LNCaP cells; type: cell-based; conditions: 250 nM, 1 h
Protocol: (§4) All reagents for chemical synthesis were purchased from Sigma Aldrich unless stated otherwise. PC3 and LNCaP cells were purchased from American Type Culture Collection (ATCC, Manassas, Va., USA), and grown in RPMI medium (Thermo Fisher Scientific, Waltham, Mass., USA) supplemented with 10% Fetal Bovine Serum (FBS) and 1% Penn/Strep at 37° C. in 5% CO2. To construct GFP-expressing cell lines, cells were transfected with lentivirus as previously reported. Matrigel 3D culture was formed following the 3D “on-top” protocol. Briefly, a glass-bottom plate was coated with a thick layer of freshly thawed matrigel, followed by solidifying the matrigel at 37° C. for 15-30 min. Cells were then plated onto the coated plate with medium containing 5% matrigel. The culture was maintained for at least 4-6 days and then ZD2-Cy5.5 (250 nM) was added to the culture medium. After 1 h, cells in the 3D matrigel were imaged with confocal laser fluorescence microscopy.

MCF-7 tumours [2] = experiment: Fluorescence imaging of tumour sections, MCF-7 model; conditions: mouse, in vivo
Protocol: (§5) To determine the distribution of ZD2-Cy5.5 in the major organs and tumours, 10 nmol ZD2-Cy5.5 was injected in tumour-bearing mice through the tail vein. At 3 h after injection, mice were sacrificed. Tumours and organs were collected and imaged with CSi Maestro imaging system (Woburn, Mass., USA) using the deep red filter sets (exposure time: 1000 ms).
(§6) Tumours were embedded in Optimum Cutting Temperature Compound (OCT) and kept froze in −80° C. Tumour tissues sectioned at the thickness of 5 μm were then fixed and permeabilized with cold acetone. BSA (1%) in PBS was used to block the tissue at room temperature for 1 hour. Mouse anti-EDB-FN antibody, BC-1 (ab154210, Abcam, Cambridge, Mass., USA), diluted with 1% BSA (1:500) was applied to the tissue and incubated at room temperature for 1 hour. After extensive washing, AlexFluor594-conjugated anti-mouse IgG antibody (1:500) (Invitrogen, Eugene, Oreg., USA) was applied and incubated with the tissue for 1 hour. Tissue sections were then counterstained with Prolong Gold antifade mounting medium with DAPI (Invitrogen). Confocal laser scanning microscopy (FV1000, Olympus, Japan) was used to acquire the fluorescence images of the tissues. H&E staining of the tissue was performed at the tissue resource core of Case Western Reserve University. H&E staining images were acquired using the Virtual slide microscope VS120 (Olympus).

[3] = test system: PC3 prostate tumor xenografts; experiment: Ex vivo fluorescence imaging, PC3 mouse model; type: in vivo; conditions: 3 hours after intravenous injection, 10 nmol
Protocol: as §1, §2

PC3 spheroids = experiment: ZD2-Cy5.5 binding, 3D matrigel culture of PC3 cells; type: cell-based; conditions: 250 nM, 1 h
Protocol: as §4

MCF-7 cells = experiment: ZD2-Cy5.5 binding, 3D culture of MCF-7 cells; type: cell-based; conditions: 250 nM, 1 h, confocal microscopy
Protocol: as §3

MDA-MB-231 tumours [4] = experiment: Fluorescence imaging of tumours, organs and sections, MDA-MB-231 model; type: in vivo, mouse
Protocol: as §5, §6

MCF-7 tumours [5] = experiment: MRI at 1.0 Tesla, MCF-7 tumours; type: in vivo, mouse; conditions: 1.67 μmol/kg i.v.
Protocol: MR images of the mice bearing MDA-MB-231 or MCF-7 tumour xenografts were acquired on an Aspect M3 small animal MRI scanner (1 Tesla). Mice were placed on a holder with the temperature maintained at 37° C., with isoflurane/oxygen mixture supplied to the mice through a nose cone. A thin catheter filled with PBS was connected to the tail vein of the mice. After mice were placed in the coil, a pilot scan was performed to adjust mice to the proper location in the coil. An axial T1-weighted sequence (TR=500 ms; TE=9 ms; Flip angle=90°; Field of view=3 cm×3 cm; Matrix size=128×128×8; slice thickness=2 mm; inter-slice distance=1 mm) was then used to acquire the images of the tumours before and 10 min, 20 min, and 30 min after contrast injection. Images were exported into DICOM data, which were then processed and analyzed using Matlab (Natick, Mass., USA). The contrast-to-noise ratio of tumours in the images was calculated as the difference between tumour mean intensity minus muscle mean intensity, divided by the noise. Three-dimensional images of mice were acquired using a gradient echo T1-weighted sequence with the following parameters: TR=17 ms; TE=6 ms; Flip angle=15°; Field of view=3.5 cm×8 cm; Matrix size=128×512×16; slice thickness=1.5 mm. […] The images were similarly analyzed as described above.

[6] = In vitro transmetallation assay with human serum; type: in vitro ADME; conditions: 2 h
Protocol: We performed in vitro transmetallation assay according to the protocol reported previously. Briefly, ZD2-Gd3N@C80 (0.02 mM Gd/mL) was incubated with human serum for 2 h. According to previous reports, transmetallation of Gd with Zn^2+, Cu^2+ and Ca^2+ bound in serum proteins occurs rapidly and 2 h is sufficient to study the equilibrium of transmetallation. The mixtures were then centrifuged at 4000 rpm and 25° C. for 150 min using CF-10 centrifugal filters (molecular weight cutoff 10 kDa). Metal ions in both the upper reservoir and the filtrates were quantified by ICP-OES. […] The degree of transmetallation of ZD2-Gd3N@C80 with Zn^2+, Cu^2+ and Ca^2+ ions in serum was evaluated using the percentage of Zn^2+, Cu^2+ and Ca^2+ ions filtered through the membrane, calculated as Transmetallation (%)=(concentration of ions in the filtrates)/(total ion concentrations before filtration)×100. Human serum was used a control.

[7] = test system: Hs578T and ZR-75-1 xenografts; experiment: MRI at 7 T, mice bearing Hs578T and ZR-75-1 xenografts; type: in vivo, mouse; conditions: 20 μmol Gd/kg, 30 min
Protocol: (§7) Female athymic nude mice were purchased from the Case Comprehensive Cancer Center and housed in the Case Center Imaging Research. All animal experiments were carried out according to a protocol approved by the IACUC of Case Western Reserve University. To initiate tumour xenografts, cells cultured in 150 mm dishes were trypsinized and centrifuged. Cell pellets from each dish were suspended in 100 μL PBS and reconstituted with Corning Matrigel Matrix High Concentration (Corning, Corning, N.Y., USA) to a concentration of 2×10^7 cells/mL on ice. The suspended cells in 100 μL matrigel solution were injected subcutaneously in the flank of mice (4-6 weeks) using a 19-gauge needle. After injection, a plug in flank was formed due to matrigel gelling. Tumours were allowed to grow for at least a month before imaging. […]
(§8) MR images of the mice bearing MDA-MB-231 or MCF-7 tumour xenografts were acquired on an Aspect M3 small animal MRI scanner (1 Tesla). […] Images were exported into DICOM data, which were then processed and analyzed using Matlab (Natick, Mass., USA). The contrast-to-noise ratio of tumours in the images was calculated as the difference between tumour mean intensity minus muscle mean intensity, divided by the noise. […] The images were similarly analyzed as described above.

[8] = test system: BT549 and T47D xenografts; experiment: MRI at 7 T, mice bearing BT549 and T47D xenografts; type: in vivo, mouse; conditions: 20 μmol Gd/kg, 30 min
Protocol: as §7, §8

[9] = Relaxivity measurement of gadofullerenes; type: physicochemical
Protocol: Infrared spectrum of ZD2-Gd3N@C80 was performed using the Cary 630 FTIR Spectrometer (Agilent Technologies, Santa Clara, Calif., USA). Lyophilized hydroxylated Gd3N@C80 or ZD2-Gd3N@C80 was reconstituted to a serial dilution in water. The solutions were pipetted in NMR tubes (500 μL in each tube), and placed in a relaxometer (Bruker) at 1.5 Tesla. For relaxivity measurement at 7 Tesla, NMR tubes containing contrast agent solutions were bundled and placed in a mouse coil in a horizontal 7 Tesla Bruker scanner (Bruker Biospin Co., Billerica, Mass.). T, maps of the solutions were acquired using a previously reported method^29. T1 and T2 values of each solution were measured. The r1 and r2 relaxivities of the contrast agent were calculated as the slope of the plot of 1/T1 and 1/T2 relaxation rates against the concentrations.

MDA-MB-231 tumours [10] = experiment: MRI at 1.0 Tesla, MDA-MB-231 tumours; type: in vivo, mouse
Protocol: MR images of the mice bearing MDA-MB-231 or MCF-7 tumour xenografts were acquired on an Aspect M3 small animal MRI scanner (1 Tesla). Mice were placed on a holder with the temperature maintained at 37° C., with isoflurane/oxygen mixture supplied to the mice through a nose cone. A thin catheter filled with PBS was connected to the tail vein of the mice. After mice were placed in the coil, a pilot scan was performed to adjust mice to the proper location in the coil. An axial T1-weighted sequence (TR=500 ms; TE=9 ms; Flip angle=90°; Field of view=3 cm×3 cm; Matrix size=128×128×8; slice thickness=2 mm; inter-slice distance=1 mm) was then used to acquire the images of the tumours before and 10 min, 20 min, and 30 min after contrast injection. Images were exported into DICOM data, which were then processed and analyzed using Matlab (Natick, Mass., USA). The contrast-to-noise ratio of tumours in the images was calculated as the difference between tumour mean intensity minus muscle mean intensity, divided by the noise. Three-dimensional images of mice were acquired using a gradient echo T1-weighted sequence with the following parameters: TR=17 ms; TE=6 ms; Flip angle=15°; Field of view=3.5 cm×8 cm; Matrix size=128×512×16; slice thickness=1.5 mm. Analysis of the change in signal intensity in muscle, heart, liver, kidney, and bladder was performed using Matlab. MRI at 7 Tesla was performed on a horizontal Bruker scanner. T1-weighted spin echo sequence with the following parameters was used: field of view (FOV): 3 cm; slice thickness: 1.2 mm; interslice distance: 1.2 mm; TR: 500 ms, TE: 8.1 ms; flip angle: 90°; average: 2; matrix size: 128×128. The images were similarly analyzed as described above.

Size by TEM and DLS = type: physicochemical
Water solubility = type: physicochemical; conditions: gadofullerene agent

ZD2-Cy5.5: linear ZD2 peptide with PEG spacer conjugated to Cy5.5 NHS ester (TVRTSAD; also: PEG spacer conjugated to Cy5.5 NHS ester)
probe in LNCaP tumor sections [1]: undetectable | fluorescence of MDA-MB-231 spheres (MDA-MB-231 spheres): strong fluorescence intensity | binding to LNCaP cell clusters (LNCaP cell clusters): no peptide binding was detected | ZD2-Cy5.5 binding in MCF-7 tumour sections (MCF-7 tumours [2]): little | fluorescence signal of PC3 tumors vs normal organs [3]: enhanced fluorescence signal | binding to PC3 spheroids (PC3 spheroids): able to bind EDB-FN secreted by the PC3 spheroids | binding and fluorescence of MCF-7 cells (MCF-7 cells): lower ZD2-Cy5.5 binding and weaker fluorescence intensity | fluorescence intensity in MDA-MB-231 tumours vs MCF-7 tumours and normal tissues (MDA-MB-231 tumours [4]; 0.5 μmol/kg i.v., 3 hours after injection): greater | fluorescence signal in the liver and kidneys (MDA-MB-231 tumours [4]; 3 hours after injection): Relatively high fluorescence signal intensity | Cy5.5 fluorescence of MDA-MB-231 tumour sections (MDA-MB-231 tumours [4]; mouse, in vivo): strong Cy5.5 fluorescence

ZD2-Gd3N@C80: ZD2-Cys peptide conjugated to maleimido hydroxylated gadofullerene Gd3N@C80, about one peptide per cage (CTVRTSAD; also: conjugated to maleimido hydroxylated gadofullerene Gd3N@C80, about one peptide per cage)
signal enhancement in MCF-7 tumours (MCF-7 tumours [5]): little enhancement | transmetallation [6]: < 0.12% | signal enhancement and CNR increase in Hs578T vs ZR-75-1 tumours [7]: greater signal enhancement and significantly higher CNR increase | signal enhancement and CNR increase in BT549 vs T47D tumours [8]: greater signal enhancement and significantly higher CNR increase | r1 relaxivity per Gd(III) ion ([9]; 1.5 Tesla): 74.6 mM⁻¹ s⁻¹ | r1 relaxivity per molecule ([9]; 1.5 Tesla): 223.8 mM⁻¹ s⁻¹ | r1 relaxivity per Gd(III) ion ([9]; 7 Tesla): 24.78 mM⁻¹ s⁻¹ | r1 relaxivity relative to clinical Gd(III)-based contrast agents ([9]; vs Gd-DTPA and Gd(HP-DO3A)): ~20 times | signal enhancement in MDA-MB-231 tumours (MDA-MB-231 tumours [10]; 1.67 μmol/kg i.v., 1.0 Tesla, at least 30 minutes): Significant signal enhancement | signal enhancement in MDA-MB-231 tumours with co-injection of ZD2 peptide (MDA-MB-231 tumours [10]; 1.67 μmol/kg with 25 μmol/kg ZD2 peptide): significantly reduced the signal enhancement | increase of contrast-to-noise ratio (CNR) in MDA-MB-231 tumours (MDA-MB-231 tumours [10]; 1.67 μmol/kg, 10-30 min): 39 to 45% | average radius (Size by TEM and DLS; DLS): 1.40 nm | average diameter (Size by TEM and DLS; TEM and DLS): 2.8 nm | water solubility (Water solubility): complete water solubility
